According to ChEMBL document CHEMBL2406943, “ABCB1 Structural Models, Molecular Docking, and Synthesis of New Oxadiazolothiazin-3-one Inhibitors” (ACS Med Chem Lett, 2013):

Target: MDR1 (ABCB1, P-glycoprotein) (Homo sapiens, UniProt P08183)
Experiment: Inhibition of MDR1 in multidrug resistant human A2780/DX3 cells assessed as accumulation of doxorubicin at 5 times compound concentration that giving 5% antiproliferative activity after 4 hrs by cytofluorimetric assay relative to (Z)-8-(4-chlorophenyl)-5-methyl-8-(pent-2-enyl-oxy)-[1,2,4]oxadiazolo[3,4-c][1,4]thiazin-3(8H)-one
Assay type: cell-based, A2780 ADR
Conditions: probe doxorubicin

Chain of MDR1 (ABCB1, P-glycoprotein) (P08183 whole entry): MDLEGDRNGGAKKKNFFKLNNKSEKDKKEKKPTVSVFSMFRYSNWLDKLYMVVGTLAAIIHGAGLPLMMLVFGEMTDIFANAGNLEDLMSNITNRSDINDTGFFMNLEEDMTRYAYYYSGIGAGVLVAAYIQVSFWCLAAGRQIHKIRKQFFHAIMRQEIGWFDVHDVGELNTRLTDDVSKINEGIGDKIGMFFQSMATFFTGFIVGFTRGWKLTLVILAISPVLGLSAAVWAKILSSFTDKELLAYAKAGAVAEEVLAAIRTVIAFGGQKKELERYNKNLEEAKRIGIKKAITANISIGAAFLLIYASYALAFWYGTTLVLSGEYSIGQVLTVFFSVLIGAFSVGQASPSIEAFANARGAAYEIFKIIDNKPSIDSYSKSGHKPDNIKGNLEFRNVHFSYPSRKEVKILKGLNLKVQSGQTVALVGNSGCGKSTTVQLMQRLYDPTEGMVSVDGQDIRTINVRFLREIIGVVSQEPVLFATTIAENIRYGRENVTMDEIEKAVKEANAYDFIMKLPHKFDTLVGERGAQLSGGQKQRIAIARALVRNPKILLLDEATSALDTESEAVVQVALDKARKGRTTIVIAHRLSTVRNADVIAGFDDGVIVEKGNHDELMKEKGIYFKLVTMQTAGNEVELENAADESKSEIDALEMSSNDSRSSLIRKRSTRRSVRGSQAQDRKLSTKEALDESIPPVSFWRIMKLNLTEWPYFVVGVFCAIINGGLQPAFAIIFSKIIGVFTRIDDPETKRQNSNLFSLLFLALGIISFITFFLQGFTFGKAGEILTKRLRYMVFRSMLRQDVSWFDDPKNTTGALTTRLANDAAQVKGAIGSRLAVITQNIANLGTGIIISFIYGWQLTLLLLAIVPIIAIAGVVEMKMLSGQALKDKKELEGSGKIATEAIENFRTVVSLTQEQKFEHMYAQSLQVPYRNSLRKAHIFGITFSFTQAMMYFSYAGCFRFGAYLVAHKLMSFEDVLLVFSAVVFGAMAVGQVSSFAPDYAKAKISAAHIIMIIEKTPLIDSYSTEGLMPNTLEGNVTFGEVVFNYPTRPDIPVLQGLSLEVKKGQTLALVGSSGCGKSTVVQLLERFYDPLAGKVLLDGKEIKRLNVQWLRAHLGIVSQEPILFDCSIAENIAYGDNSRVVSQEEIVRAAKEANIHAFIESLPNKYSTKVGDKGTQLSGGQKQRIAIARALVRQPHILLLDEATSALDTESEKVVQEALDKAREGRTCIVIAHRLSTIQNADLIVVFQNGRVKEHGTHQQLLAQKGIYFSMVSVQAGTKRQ

Row | Structure (SMILES) | inhibition at 4 h [%]
1 | CC/C=C\CO[C@]1(c2ccc(Cl)cc2)SC=C(C)n2c1noc2=O | 48
2 | CC/C=C\CO[C@@]1(c2ccc(Cl)cc2)SC=C(C)n2c1noc2=O | 136
3 | CCCCCCOC1(c2ccc(Br)cc2)SC=C(C)n2c1noc2=O (racemic) | 72
4 | CC/C=C/COC1(c2ccc(Cl)cc2)SC=C(C)n2c1noc2=O (racemic) | 35
5 | CCC/C=C\COC1(c2ccc(Cl)cc2)SC=C(C)n2c1noc2=O (racemic) | 131
6 | CCC/C=C/COC1(c2ccc(Cl)cc2)SC=C(C)n2c1noc2=O (racemic) | 109
7 | CCCCCCOC1(c2ccc(Cl)cc2)SC=C(C)n2c1noc2=O (racemic) | 18
8 | CC/C=C\COC1(c2ccc(Br)cc2)SC=C(C)n2c1noc2=O (racemic) | 139
